Measurements: patent US20230085307A1, “PYRIDAZINONE COMPOUND AND HERBICIDE” (NISSAN CHEMICAL CORPORATION, priority 2019, published 2023)

Assays:
green foxtail [1] = test: Test Example 5: herbicidal effect by foliage application, plastic box (Table 20, symbol G); type: in vivo, green foxtail (Setaria viridis); details: 320 g/ha, foliage application after 14-day growth, evaluated three weeks after application
Procedure, shortened: (§1)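 Plants sown in sterilized diluvial soil and grown 14 days in a greenhouse at 25° C to 30° C, then sprayed on the foliage with the compound's emulsion diluted in water to a predetermined herbicide amount. Injury to weeds and crops scored three weeks after application on a visual rating scale.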

velvetleaf [2] = test: Test Example 4: herbicidal effect by soil treatment (Table 19, symbol M); type: in vivo, velvetleaf (Abutilon theophrasti); details: amount of applied herbicide 320 g/ha
Procedure, shortened: (§2)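 Three weeks of greenhouse growth at 25° C. to 30° C. followed a uniform surface spray of water-diluted emulsion at a predetermined herbicide amount. Seeds had been sown beforehand under about 1.5 cm of sterilized diluvial soil. Grading followed criteria set out in an earlier test.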

barnyard grass [3] = test: Test Example 3: herbicidal effect by foliage application, Wagner pot (Table 18, symbol H); type: in vivo, barnyard grass (Echinochloa crus-galli); details: 320 g/ha
Procedure, shortened: (§3)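 Plants were sown in alluvial soil held under 0.1–0.5 cm standing water and grown 14 days in a greenhouse at 25–30 °C. An emulsifiable formulation, water-diluted to the set dose, was then sprayed onto the foliage, and effects were scored three weeks later using previously defined criteria.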

lambsquarters [4] = test: Test Example 5: herbicidal effect by foliage application, plastic box (Table 20, symbol O); type: in vivo, lambsquarters (Chenopodium album); details: 320 g/ha, foliage application after 14-day growth, evaluated three weeks after application
Procedure, shortened: as §1

blackgrass [5] = test: Test Example 4: herbicidal effect by soil treatment (Table 19, symbol J); type: in vivo, blackgrass (Alopecurus myosuroides); details: amount of applied herbicide 320 g/ha
Procedure, shortened: as §2

chickweed [6] = test: Test Example 5: herbicidal effect by foliage application, plastic box (Table 20, symbol P); type: in vivo, common chickweed (Stellaria media); details: 320 g/ha, foliage application after 14-day growth, evaluated three weeks after application
Procedure, shortened: as §1

barnyard grass [7] = test: Test Example 4: herbicidal effect by soil treatment (Table 19, symbol H); type: in vivo, barnyard grass (Echinochloa crus-galli); details: amount of applied herbicide 320 g/ha
Procedure, shortened: as §2

windgrass [8] = test: Test Example 4: herbicidal effect by soil treatment (Table 19, symbol L); type: in vivo, windgrass (Apera spica-venti); details: amount of applied herbicide 320 g/ha
Procedure, shortened: as §2

wild oat [9] = test: Test Example 4: herbicidal effect by soil treatment (Table 19, symbol I); type: in vivo, wild oat (Avena fatua); details: amount of applied herbicide 320 g/ha
Procedure, shortened: as §2

barnyard grass [10] = test: Test Example 5: herbicidal effect by foliage application, plastic box (Table 20, symbol H); type: in vivo, barnyard grass (Echinochloa crus-galli); details: 320 g/ha, foliage application after 14-day growth, evaluated three weeks after application
Procedure, shortened: as §1

southern crabgrass [11] = test: Test Example 5: herbicidal effect by foliage application, plastic box (Table 20, symbol F); type: in vivo, southern crabgrass (Digitaria ciliaris); details: 320 g/ha, foliage application after 14-day growth, evaluated three weeks after application
Procedure, shortened: as §1

Chinese sprangletop = test: Test Example 3: herbicidal effect by foliage application, Wagner pot (Table 18, symbol D); type: in vivo, chinese sprangletop (Leptochloa chinensis); details: 320 g/ha
Procedure, shortened: as §3

Japanese bulrush = test: Test Example 1: herbicidal activity, application before weed generation under submerged conditions (Table 16, symbol B); type: in vivo, Japanese bulrush (Schoenoplectus juncoides); details: amount of applied herbicide 320 g/ha
Procedure, shortened: (§4)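 Alluvial soil was flooded to 4 cm depth, weed seeds were sown mixed and 2.5-leaf rice seedlings were transplanted. On sowing day, the compound's emulsion, diluted in water to a set dose, was applied to the water surface. Plants grew at 25–30 °C and were scored 0–5 after three weeks.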

chickweed [12] = test: Test Example 4: herbicidal effect by soil treatment (Table 19, symbol P); type: in vivo, common chickweed (Stellaria media); details: amount of applied herbicide 320 g/ha
Procedure, shortened: as §2

persian speedwell [13] = test: Test Example 5: herbicidal effect by foliage application, plastic box (Table 20, symbol R); type: in vivo, Persian speedwell (Veronica persica); details: 320 g/ha, foliage application after 14-day growth, evaluated three weeks after application
Procedure, shortened: as §1

blackgrass [14] = test: Test Example 5: herbicidal effect by foliage application, plastic box (Table 20, symbol J); type: in vivo, blackgrass (Alopecurus myosuroides); details: 320 g/ha, foliage application after 14-day growth, evaluated three weeks after application
Procedure, shortened: as §1

green foxtail [15] = test: Test Example 4: herbicidal effect by soil treatment (Table 19, symbol G); type: in vivo, green foxtail (Setaria viridis); details: amount of applied herbicide 320 g/ha
Procedure, shortened: as §2

rice flat sedge = test: Test Example 3: herbicidal effect by foliage application, Wagner pot (Table 18, symbol E); type: in vivo, rice flat sedge (Cyperus iria); details: 320 g/ha
Procedure, shortened: as §3

Italian ryegrass [16] = test: Test Example 5: herbicidal effect by foliage application, plastic box (Table 20, symbol K); type: in vivo, Italian ryegrass (Lolium multiflorum); details: 320 g/ha, foliage application after 14-day growth, evaluated three weeks after application
Procedure, shortened: as §1

late watergrass = test: Test Example 1: herbicidal activity, application before weed generation under submerged conditions (Table 16, symbol A); type: in vivo, late watergrass (Echinochloa oryzicola); details: amount of applied herbicide 320 g/ha
Procedure, shortened: as §4

redroot pigweed [17] = test: Test Example 5: herbicidal effect by foliage application, plastic box (Table 20, symbol N); type: in vivo, redroot pigweed (Amaranthus retroflexus); details: 320 g/ha, foliage application after 14-day growth, evaluated three weeks after application
Procedure, shortened: as §1

windgrass [18] = test: Test Example 5: herbicidal effect by foliage application, plastic box (Table 20, symbol L); type: in vivo, windgrass (Apera spica-venti); details: 320 g/ha, foliage application after 14-day growth, evaluated three weeks after application
Procedure, shortened: as §1

Italian ryegrass [19] = test: Test Example 4: herbicidal effect by soil treatment (Table 19, symbol K); type: in vivo, Italian ryegrass (Lolium multiflorum); details: amount of applied herbicide 320 g/ha
Procedure, shortened: as §2

southern crabgrass [20] = test: Test Example 4: herbicidal effect by soil treatment (Table 19, symbol F); type: in vivo, southern crabgrass (Digitaria ciliaris); details: amount of applied herbicide 320 g/ha
Procedure, shortened: as §2

oval-leafed pondweed = test: Test Example 1: herbicidal activity, application before weed generation under submerged conditions (Table 16, symbol C); type: in vivo, oval-leafed pondweed (Monochoria vaginalis); details: amount of applied herbicide 320 g/ha
Procedure, shortened: as §4

lambsquarters [21] = test: Test Example 4: herbicidal effect by soil treatment (Table 19, symbol O); type: in vivo, lambsquarters (Chenopodium album); details: amount of applied herbicide 320 g/ha
Procedure, shortened: as §2

redroot pigweed [22] = test: Test Example 4: herbicidal effect by soil treatment (Table 19, symbol N); type: in vivo, redroot pigweed (Amaranthus retroflexus); details: amount of applied herbicide 320 g/ha
Procedure, shortened: as §2

velvetleaf [23] = test: Test Example 5: herbicidal effect by foliage application, plastic box (Table 20, symbol M); type: in vivo, velvetleaf (Abutilon theophrasti); details: 320 g/ha, foliage application after 14-day growth, evaluated three weeks after application
Procedure, shortened: as §1

persian speedwell [24] = test: Test Example 4: herbicidal effect by soil treatment (Table 19, symbol R); type: in vivo, Persian speedwell (Veronica persica); details: amount of applied herbicide 320 g/ha
Procedure, shortened: as §2

wild oat [25] = test: Test Example 5: herbicidal effect by foliage application, plastic box (Table 20, symbol I); type: in vivo, wild oat (Avena fatua); details: 320 g/ha, foliage application after 14-day growth, evaluated three weeks after application
Procedure, shortened: as §1

CCCC(=O)Oc1c(C)nn(C)c(=O)c1-c1c(-c2ccc(OC(F)(F)F)cc2)sc2c(F)cccc12 [4-049]
herbicidal effect on G: green foxtail (evaluation grade 0-5) (green foxtail [1]): 4 (Herbicidal rate of 70% or more and less than 90%) | Herbicidal effect by soil treatment, M: velvetleaf (velvetleaf [2]): 0 (Herbicidal rate of 5% or less (almost no effect)) | herbicidal effect on barnyard grass (H) (barnyard grass [3]): 5 (Herbicidal rate of 90% or more (almost completely withered)) | herbicidal effect on O: lambsquarters (evaluation grade 0-5) (lambsquarters [4]): 3 (Herbicidal rate of 40% or more and less than 70%) | Herbicidal effect by soil treatment, J: blackgrass (blackgrass [5]): 0 (Herbicidal rate of 5% or less (almost no effect)) | herbicidal effect on P: chickweed (evaluation grade 0-5) (chickweed [6]): 5 (Herbicidal rate of 90% or more (almost completely withered)) | Herbicidal effect by soil treatment, H: barnyard grass (barnyard grass [7]): 0 (Herbicidal rate of 5% or less (almost no effect)) | Herbicidal effect by soil treatment, L: windgrass (windgrass [8]): 0 (Herbicidal rate of 5% or less (almost no effect)) | Herbicidal effect by soil treatment, I: wild oat (wild oat [9]): 0 (Herbicidal rate of 5% or less (almost no effect)) | herbicidal effect on H: barnyard grass (evaluation grade 0-5) (barnyard grass [10]): 5 (Herbicidal rate of 90% or more (almost completely withered)) | herbicidal effect on F: southern crabgrass (evaluation grade 0-5) (southern crabgrass [11]): 0 (Herbicidal rate of 5% or less (almost no effect)) | herbicidal effect on Chinese sprangletop (D) (Chinese sprangletop): 3 (Herbicidal rate of 40% or more and less than 70%) | Herbicidal effect, B: Japanese bulrush (Japanese bulrush): 0 (Herbicidal rate of 5% or less (almost no effect)) | Herbicidal effect by soil treatment, P: chickweed (chickweed [12]): 3 (Herbicidal rate of 40% or more and less than 70%) | herbicidal effect on R: persian speedwell (evaluation grade 0-5) (persian speedwell [13]): 5 (Herbicidal rate of 90% or more (almost completely withered)) | herbicidal effect on J: blackgrass (evaluation grade 0-5) (blackgrass [14]): 0 (Herbicidal rate of 5% or less (almost no effect)) | Herbicidal effect by soil treatment, G: green foxtail (green foxtail [15]): 0 (Herbicidal rate of 5% or less (almost no effect)) | herbicidal effect on rice flat sedge (E) (rice flat sedge): 5 (Herbicidal rate of 90% or more (almost completely withered)) | herbicidal effect on K: Italian ryegrass (evaluation grade 0-5) (Italian ryegrass [16]): 0 (Herbicidal rate of 5% or less (almost no effect)) | Herbicidal effect, A: late watergrass (late watergrass): 3 (Herbicidal rate of 40% or more and less than 70%) | herbicidal effect on N: redroot pigweed (evaluation grade 0-5) (redroot pigweed [17]): 5 (Herbicidal rate of 90% or more (almost completely withered)) | herbicidal effect on L: windgrass (evaluation grade 0-5) (windgrass [18]): 0 (Herbicidal rate of 5% or less (almost no effect)) | Herbicidal effect by soil treatment, K: Italian ryegrass (Italian ryegrass [19]): 0 (Herbicidal rate of 5% or less (almost no effect)) | Herbicidal effect by soil treatment, F: southern crabgrass (southern crabgrass [20]): 0 (Herbicidal rate of 5% or less (almost no effect)) | Herbicidal effect, C: oval-leafed pondweed (oval-leafed pondweed): 0 (Herbicidal rate of 5% or less (almost no effect)) | Herbicidal effect by soil treatment, O: lambsquarters (lambsquarters [21]): 3 (Herbicidal rate of 40% or more and less than 70%) | Herbicidal effect by soil treatment, N: redroot pigweed (redroot pigweed [22]): 4 (Herbicidal rate of 70% or more and less than 90%) | herbicidal effect on M: velvetleaf (evaluation grade 0-5) (velvetleaf [23]): 5 (Herbicidal rate of 90% or more (almost completely withered)) | Herbicidal effect by soil treatment, R: persian speedwell (persian speedwell [24]): 4 (Herbicidal rate of 70% or more and less than 90%) | herbicidal effect on I: wild oat (evaluation grade 0-5) (wild oat [25]): 0 (Herbicidal rate of 5% or less (almost no effect))
